The text below walks through data of patent EP2711009A1, “Compounds for use in treating or preventing primary and metastatic breast and prostate cancer” (Institut Univ. de Ciència i Tecnologia, S.A., priority 2012, dated 2014).

Common to all, as to type: cell-based
Assay [1] relates to MDA-MB-231(SA) breast cancer cells. Nature of the assay: WST-1 tetrazolium dye proliferation assay, MDA-MB-231(SA). The following applies: for inhibition at 1 µM: Homo sapiens, read-out: proliferation inhibitory effect compared with 0.1% DMSO vehicle control group; for proliferation inhibitory effect compared with Gemcitabine: relative to Gemcitabine (= 0), negative = less inhibition than Gemcitabine. As for the experimental part:
(§1) Determination of the ability of compound of formula (I) and combinations between compound of formula (I) and certain therapeutic compounds described herein to inhibit the proliferation of target cells was assayed in vitro against breast and prostate tumour cells.
(§2) MCF-7 and LNCaP cells were purchased from ATCC. MDA-MB-231(SA) cells were obtained from Professor Theresa Guise. PNT1A cells were purchased from ECACC. The cells were grown in a subconfluent condition to maintain a logarithmic growth phase. The cells were dislodged for passage using trypsin-EDTA.
(§3) The proliferation of the cell lines was evaluated by using the commercial WST-1 proliferation measurement reagent. Cells from exponentially growing cultures were plated on the 96 well plates at the appropriate seeding density in the optimal medium to give logarithmic growth over the course of the assay. The plates with MCF-7, MDA-MB-231(SA), PC3M and PNT1A cells were incubated 24h at 37°C in a humidified CO2 atmosphere to allow for recovery from trypsinization before adding of test and control compounds. 1mM stock solutions were prepared from test compounds in DMSO (dimethylsulfoxide) and stored at -20°C. Control compounds Ara-C and Gemcitabine stock solutions were prepared in sterile water. Each test and control compound was diluted twice the final concentration in appropriate media. Half of the final well volume of each dilution was added in six parallels to plates containing cells. Required volume of DMSO was added into the vehicle and control compound dilutions to achieve the final concentration of 0.1% DMSO in all control and test compound wells. The plates were returned to 37°C in a humified CO2 atmosphere and incubated for 5 days. WST-1 reagent (2-(4-Iodophenyl)-3-(4-nitrophenyl)-5-(2,4-disulfophenyl)-2H-tetrazolium) was added to each well according manufacturer's instructions and the plates were returned to 37°C in a humidified CO2 atmosphere for 2 hours. Following incubation the absorbance at a wavelength of 450nm was measured from each well using a multilabel counter. The absorbance at wavelength 450nm correlates linearly to number of viable cells in the well.
(§4) The means and standard deviations for parallel samples were calculated and plotted as a graph.
(In general: Formazan colour is commonly taken as a measure of viable cells.)

Assay [2] concerns PC3M prostate cancer cells. The experiment in a line: WST-1 tetrazolium dye proliferation assay, PC3M. The conditions noted are these: for inhibition at 1 µM: Homo sapiens, PC-3M, 120 h, read-out: proliferation inhibitory effect compared with 0.1% DMSO vehicle control group; for proliferation inhibitory effect compared with Gemcitabine: relative to Gemcitabine (= 0). As for the experimental part: as §1, §2, §3, §4

Assay [3] concerns PNT1A immortalized normal prostate cells. The experiment in a line: WST-1 tetrazolium dye proliferation assay, PNT1A normal cells. The following applies: Homo sapiens, 120 h, read-out: proliferation inhibitory effect compared with 0.1% DMSO vehicle control group. As for the experimental part:
as §1, §2, §3, §4

For a further assay, the system named is pancreatic cancer cells. The experiment in a line: Effect on pancreatic cancer cells (no method given). The following applies: other type of cancer cells such as pancreatic cancer cells.
Where [4] appears, read: PNT1A immortalized normal prostate cell line, 5 days incubation, mean±SD, concentration not given (primary screen 1 microM).

Where two headings read alike, the source gives them in different places.

In the case of `Nc1ccn([C@@H]2O[C@H](CO)[C@@H](O)[C@@H]2O)c(=O)n1` [Ara-C], the inhibition at 1 µM amounted to 80.4 ± 2.5% in assay [1] (MDA-MB-231, 120 h); 72.6 ± 3.5% in assay [2]; 66.5 ± 1.8% in assay [3] (setting [4]).
`Nc1ccn([C@@H]2O[C@H](CO)[C@@H](O)C2(F)F)c(=O)n1` [Gemcitabine, 2',2'-difluorodeoxycytidine]: the inhibition at 1 µM amounted to 93.3 ± 0.9% in assay [1] (MDA-MB-231, 120 h); 67.5 ± 7.2% in assay [2]; 98.8 ± 0.3% in assay [3] (setting [4]). Moreover, the “proliferation inhibitory effect compared with Gemcitabine” value in assay [1] (MDA-MB-231(SA)) and in assay [2] (PC3M) was 0% each time.
As to `Nc1ncnc2[nH]ncc12` [Compound A, 4-Aminopyrazolo[3,4-d]pyrimidine], the “proliferation inhibitory effect compared with Gemcitabine” value in assay [2] (PC3M) amounted to 70.1±2.7%.
As for `CCSc1ncnc2c1ncn2[C@@H]1O[C@H](CO)[C@@H](O)[C@H]1O` [Compound I, 6-(Ethylthio)inosine], the inhibition at 1 µM in assay [1] (MDA-MB-231, 120 h) came to 93.4 ± 1.3%; in assay [2], 73.6 ± 5.5%; in assay [3] (PNT1A), 26.2 ± 7.7%. The “proliferation inhibitory effect compared with Gemcitabine” value is reported as 11.7±18.0% in assay [1] (MDA-MB-231(SA)) and 26.6±15.4% in assay [2] (PC3M). Also, the “effect on pancreatic cancer cells” value with pancreatic cancer cells is “no effect was detected”.
Consider `O=c1[nH]c(=O)n([C@H]2C[C@H](O)[C@@H](CO)O2)cc1F` [Floxuridine], for which the inhibition at 1 µM is 82.4 ± 2.6% in assay [1] (120 h, MDA-MB-231(SA), 5 days incubation, mean±SD, concentration not given (primary screen 1 microM)); 78 ± 3.4% in assay [2] (PC3M, 5 days incubation, mean±SD, concentration not given (primary screen 1 microM)); 88.3 ± 0.6% in assay [3] (setting [4]). The “proliferation inhibitory effect compared with Gemcitabine” value is listed as -136.4±34.6% in assay [1] (MDA-MB-231(SA)) and 38.9±9.5% in assay [2] (PC3M).
